# Reference: patent US5059624A, “Guanidine derivatives having hypotensive activity, composition containing them and process for obtaining them” (Consiglio Nazionale Delle Ricerche, priority 1988, dated 1991)
# Where two headings read alike, the source gives them in different places.
# Test system: male Wistar rats
# Settings: for cardiovascular and respiratory effects (in words): i.v.
# [1] = doses higher than 50-800 μg/kg i.v., rat
# Protocol: In order to check its activity, diguanido-II was dissolved in a 0.9 % sodium chloride solution and administered through "rapid" i.v. route in male Wistar rats, under general anaesthesia obtained by means of 10% ethyl urethan (i ml/hg).
# The active ingredients called guanido-III, -IV, -V, as well as agmatine and galegine, were also tested, after having been administered through "rapid" i.v. route in male Wistar rats (weighing average 280±5 g) under general anaesthesia obtained by means of 10% ethyl uretan (1 ml/hg, i.p.). The general experimental conditions were exactly the same as previously mentioned for guanido-I and diguanido-II, so that the cardiovascular and respiratory effects could be compared.
# The parameters measured are as follows: systolic and diastolic systemic arterial pressure (AP), heart rate (HR), maximum rate of increase in the left ventricular isovolumetric pressure (dp/dt), respiratory frequency (RF) and tidal volume (TV). The doses (in μg/kg body weight, referred to the active substance) varied from 50 μg/kg to 6,400 μg/kg (ratio=2.0); in some cases higher does have been employed.
smiles,measurement,setting,value
N=C(N)N [guanidine],"alterations of RF, TV and HR (in words)","50-800 μg/kg i.v., rat","did not cause in the rats under test significative alterations of RF, TV and HR"
same,dp/dt (in words),"50-800 μg/kg i.v., rat",a little reduction of dp/dt
same,hypotensive responses (in words),"50-800 μg/kg i.v., rat",slight and not significant hypotensive responses
same,the other parameters (in words),"6,400-1,2600 μg/kg i.v., rat",slight changes
same,RF and TV (in words),[1],reduction of RF and TV
same,cardiac inotropism (dp/dt) (in words),[1],a little increase in cardiac inotropism (dp/dt)
same,systemic arterial pressure (in words),[1],biphasic responses of a slight entity (hypo-hypertension)
"CC(C)=CCNC(=N)NCCCCN [guanido-III, prenylagmatine]",Δ AP DIAST,200 μg/kg i.v.,-2 ± 0.2 mmHg
same,Δ AP SYST,200 μg/kg i.v.,-2 ± 0.3 mmHg
same,Δ HR,200 μg/kg i.v.,0 beats/min
same,Δ RF,200 μg/kg i.v.,+7 ± 4%
same,Δ TV,200 μg/kg i.v.,+9 ± 2%
same,Δ dp/dt,200 μg/kg i.v.,+214 ± 20 mmHg/sec
same,Δ AP DIAST,400 μg/kg i.v.,-2 ± 0.6 mmHg
same,Δ AP SYST,400 μg/kg i.v.,-3.5 ± 1.5 mmHg
same,Δ HR,400 μg/kg i.v.,0 beats/min
same,Δ RF,400 μg/kg i.v.,+7 ± 3%
same,Δ TV,400 μg/kg i.v.,+17 ± 6%
same,Δ dp/dt,400 μg/kg i.v.,+321 ± 17 mmHg/sec
same,Δ AP DIAST,800 μg/kg i.v.,-13 ± 4 mmHg
same,Δ AP SYST,800 μg/kg i.v.,-11 ± 1 mmHg
same,Δ HR,800 μg/kg i.v.,-15 ± 3 beats/min
same,Δ RF,800 μg/kg i.v.,+10 ± 4%
same,Δ TV,800 μg/kg i.v.,+33 ± 9%
same,Δ dp/dt,800 μg/kg i.v.,+1356 ± 428 mmHg/sec
same,Δ AP DIAST,1600 μg/kg i.v.,-21 ± 4 mmHg
same,Δ AP SYST,1600 μg/kg i.v.,-13 ± 2 mmHg
same,Δ HR,1600 μg/kg i.v.,-23 ± 10 beats/min
same,Δ RF,1600 μg/kg i.v.,+18 ± 3%
same,Δ TV,1600 μg/kg i.v.,+21 ± 7%
same,Δ dp/dt,1600 μg/kg i.v.,+2157 ± 655 mmHg/sec
same,Δ AP DIAST,3200 μg/kg i.v.,-36 ± 6 mmHg
same,Δ AP SYST,3200 μg/kg i.v.,-36 ± 7 mmHg
same,Δ HR,3200 μg/kg i.v.,-26 ± 8 beats/min
same,Δ RF,3200 μg/kg i.v.,-42 ± 9%
same,Δ TV,3200 μg/kg i.v.,-73 ± 18%
same,Δ AP DIAST,6400 μg/kg i.v.,-85 ± 3 mmHg
same,Δ AP SYST,6400 μg/kg i.v.,-112 ± 3 mmHg
same,Δ HR,6400 μg/kg i.v.,-310 ± 25 beats/min
same,Δ RF,6400 μg/kg i.v.,-100%
same,Δ TV,6400 μg/kg i.v.,-100%
same,Δ dp/dt,6400 μg/kg i.v.,-5422 ± 514 mmHg/sec
same,cardiovascular and respiratory effects (in words),rat,"systolic and diastolic arterial hypotension (well evident starting from the dose of 800 μg/kg), bradycardia, increase of dp/dt (up to the dose of 3,200 μg/kg). increase of RF and TV (up to the dose of 1,600 μg/kg)"
same,death of the tested animals,"rat, in vivo, iv",caused death of the tested animals
"COc1ccc(C=CC(=O)NCCCCNC(=N)N)cc1OC [guanido-V, 4-[(3,4-dimethoxycinnamoyl)amino]butylguanldine]",Δ AP DIAST,200 μg/kg i.v.,0 mmHg
same,Δ AP SYST,200 μg/kg i.v.,0 mmHg
same,Δ HR,200 μg/kg i.v.,0 beats/min
same,Δ RF,200 μg/kg i.v.,-7 ± 2%
same,Δ TV,200 μg/kg i.v.,-14 ± 4%
same,Δ dp/dt,200 μg/kg i.v.,-392 ± 21 mmHg/sec
same,Δ AP DIAST,400 μg/kg i.v.,-3 ± 1 mmHg
same,Δ AP SYST,400 μg/kg i.v.,-4 ± 2 mmHg
same,Δ HR,400 μg/kg i.v.,0 beats/min
same,Δ RF,400 μg/kg i.v.,-3%
same,Δ TV,400 μg/kg i.v.,-13 ± 2%
same,Δ dp/dt,400 μg/kg i.v.,-384 ± 39 mmHg/sec
same,Δ AP DIAST,800 μg/kg i.v.,-6 ± 2 mmHg
same,Δ AP SYST,800 μg/kg i.v.,-5 ± 2 mmHg
same,Δ HR,800 μg/kg i.v.,0 beats/min
same,Δ RF,800 μg/kg i.v.,-3 ± 2%
same,Δ TV,800 μg/kg i.v.,+12 ± 4%
same,Δ dp/dt,800 μg/kg i.v.,-430 ± 43 mmHg/sec
same,Δ AP DIAST,1600 μg/kg i.v.,-6 ± 2 mmHg
same,Δ AP SYST,1600 μg/kg i.v.,-8 ± 3 mmHg
same,Δ HR,1600 μg/kg i.v.,0 beats/min
same,Δ RF,1600 μg/kg i.v.,-4 ± 1%
same,Δ TV,1600 μg/kg i.v.,+11 ± 3%
same,Δ dp/dt,1600 μg/kg i.v.,-642 ± 76 mmHg/sec
same,Δ AP DIAST,3200 μg/kg i.v.,-9 ± 3 mmHg
same,Δ AP SYST,3200 μg/kg i.v.,-10 ± 4 mmHg
same,Δ HR,3200 μg/kg i.v.,0 beats/min
same,Δ RF,3200 μg/kg i.v.,+1 ± 1%
same,Δ TV,3200 μg/kg i.v.,+20 ± 6%
same,Δ dp/dt,3200 μg/kg i.v.,+684 ± 38 mmHg/sec
same,Δ AP DIAST,6400 μg/kg i.v.,-15 ± 4 mmHg
same,Δ AP SYST,6400 μg/kg i.v.,-11 ± 3 mmHg
same,Δ HR,6400 μg/kg i.v.,-14 ± 6 beats/min
same,Δ RF,6400 μg/kg i.v.,+10 ± 4%
same,Δ TV,6400 μg/kg i.v.,+22 ± 7%
same,Δ dp/dt,6400 μg/kg i.v.,+2354 ± 214 mmHg/sec
same,Δ AP DIAST,12800 μg/kg i.v.,-28 ± 4 mmHg
same,Δ AP SYST,12800 μg/kg i.v.,-23 ± 5 mmHg
same,Δ HR,12800 μg/kg i.v.,-49 ± 8 beats/min
same,Δ RF,12800 μg/kg i.v.,+11 ± 3%
same,Δ TV,12800 μg/kg i.v.,+74 ± 8%
same,Δ dp/dt,12800 μg/kg i.v.,+2996 ± 170 mmHg/sec
same,Δ AP DIAST,102400 μg/kg i.v.,-30 ± 5 mmHg
same,Δ AP SYST,102400 μg/kg i.v.,-24 ± 4 mmHg
same,Δ HR,102400 μg/kg i.v.,-67 ± 11 beats/min
same,Δ RF,102400 μg/kg i.v.,+6 ± 4%
same,Δ TV,102400 μg/kg i.v.,+79 ± 12%
same,Δ dp/dt,102400 μg/kg i.v.,+3040 ± 224 mmHg/sec
same,cardiovascular and respiratory effects (in words),rat,"systolic and diastolic arterial hypotension, more evident from the dose of 3,200 μg/kg on; bradycardia was observed starting from the dose of 6,400 μg/kg, a slight reduction of dp/dt and RF appeared up to the highest doses; TV showed a similar trend"
